# “Also recorded” adds a separate entry of the source.
# Assays:
# [1] = system: OvCa cell lines; assay: 2D monolayer viability assay, across the panel; assay type: cell-based, human; details: Homo sapiens, 48 h, read-out: no significant growth inhibition of any of the OvCa cell lines at concentrations as high as
# [2] = system: SKOV3IP1 spheroids; assay: Spheroid viability assay (CellTiterGlo 3D); assay type: cell-based; details: Homo sapiens; 48 h, Mean ± SD, N=3
# [3] = system: normal human ovarian HI0-180 epithelial cells; assay: Spheroid viability assay (CellTiterGlo 3D); assay type: cell-based; details: Epithelial cell, 48 h
# [4] = system: OVCAR4 spheroids; assay: Spheroid viability assay (CellTiterGlo 3D); assay type: cell-based; details: Homo sapiens, OVCAR-4; 48 h, Mean ± SD, N=3
# [5] = system: A2780CP20 spheroids; assay: Spheroid viability assay (CellTiterGlo 3D); assay type: cell-based; details: Homo sapiens; 48 h, Mean ± SD, N=3
# [6] = system: COV362 spheroids; assay: Spheroid viability assay (CellTiterGlo 3D); assay type: cell-based; details: Homo sapiens, 48 h, Mean ± SD, N=3
# [7] = system: A2780 spheroids; assay: Spheroid viability assay (CellTiterGlo 3D); assay type: cell-based; details: Homo sapiens, 48 h, Mean ± SD, N=3
# [8] = system: SKOV3TRIP2 spheroids; assay: Spheroid viability assay (CellTiterGlo 3D); assay type: cell-based; details: Homo sapiens; 48 h, Mean ± SD, N=3
# [9] = system: SKOV3 spheroids; assay: Spheroid viability assay (CellTiterGlo 3D); assay type: cell-based; details: Homo sapiens, SK-OV-3; 48 h, Mean ± SD, N=3
# [10] = system: HeyA8-MDR spheroids; assay: Spheroid viability assay (CellTiterGlo 3D); assay type: cell-based; details: Homo sapiens, 48 h, Mean ± SD, N=3
# [11] = system: IMR90 fibroblasts; assay: 2D monolayer viability assay (CellTiter Blue); assay type: cell-based; details: Homo sapiens, IMR-90; 48 h, N=3
# [12] = system: HEYA8-MDR; assay: 2D monolayer viability assay (CellTiter Blue); assay type: cell-based; details: Homo sapiens, 48 h, Mean ± SD, N=3
# [13] = system: HEYA8; assay: 2D monolayer viability assay (CellTiter Blue); assay type: cell-based; details: Homo sapiens, HEY A8; 48 h, Mean ± SD, N=3
# [14] = system: OVCAR4; assay: 2D monolayer viability assay (CellTiter Blue); assay type: cell-based; details: Homo sapiens, OVCAR-4; 48 h, Mean ± SD, N=3
# [15] = system: SKOV3TRIP2; assay: 2D monolayer viability assay (CellTiter Blue); assay type: cell-based; details: Homo sapiens; 48 h, Mean ± SD, N=3
# [16] = system: A2780; assay: 2D monolayer viability assay (CellTiter Blue); assay type: cell-based; details: Homo sapiens, A2780; 48 h, Mean ± SD, N=3; read-out: Monolayer (IC50 µM) A2780
# [17] = system: A2780CP20; assay: 2D monolayer viability assay (CellTiter Blue); assay type: cell-based; details: Homo sapiens; 48 h, Mean ± SD, N=3
# [18] = system: SKOV3IP1; assay: 2D monolayer viability assay (CellTiter Blue); assay type: cell-based; details: Homo sapiens; 48 h, Mean ± SD, N=3
# [19] = system: SKOV3; assay: 2D monolayer viability assay (CellTiter Blue); assay type: cell-based; details: Homo sapiens, SK-OV-3; 48 h, Mean ± SD, N=3
# [20] = system: OvCa cell line spheroids; assay: Spheroid viability assay, across the panel; assay type: cell-based; details: Homo sapiens; 48 h exposure; read-out: no effects on spheroids in any cell lines at concentrations up to
# [21] = biological target: T1, PTP4A3 protein (Homo sapiens, UniProt O75365); assay: PTP4A3 phosphatase activity assay with DiFMUP substrate; assay type: biochemical; set-up: using a full-length recombinant human PTP4A3 and DiFMUP as the substrate; His6; made in house; details: full-length recombinant human PTP4A3, DiFMUP substrate; read-out: PTP4A3 inhibition, inactive at concentrations as high as
# T1 sequence (O75365 whole entry): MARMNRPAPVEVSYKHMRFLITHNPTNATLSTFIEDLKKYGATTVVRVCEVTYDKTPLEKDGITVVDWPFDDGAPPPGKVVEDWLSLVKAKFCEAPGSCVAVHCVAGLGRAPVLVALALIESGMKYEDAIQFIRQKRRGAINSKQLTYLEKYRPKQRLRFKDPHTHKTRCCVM
# [22] = system: HeyA8 cells; assay: Scratch wound migration assay; assay type: cell-based, human; details: measured 14 h after scratch
# [23] = biological target: T1, PTP4A3 protein; assay: Thermal shift assay with SYPRO orange; assay type: binding; set-up: made in house; details: 100 µM compound, 16 μM protein
# [24] = system: HeyA8 spheroids; assay: Spheroid viability and growth assay; assay type: cell-based, human
# [25] = system: RhoA activation in HeyA8 cells; assay: RhoA G-LISA activation assay; assay type: cell-based, human; details: HeyA8, 1 µM
# [26] = biological target: PTP4A1 (Homo sapiens, UniProt Q93096); assay: PTP4A1 phosphatase activity assay with DiFMUP; assay type: biochemical; details: DiFMUP substrate
# Chain of PTP4A1 (Q93096 whole entry): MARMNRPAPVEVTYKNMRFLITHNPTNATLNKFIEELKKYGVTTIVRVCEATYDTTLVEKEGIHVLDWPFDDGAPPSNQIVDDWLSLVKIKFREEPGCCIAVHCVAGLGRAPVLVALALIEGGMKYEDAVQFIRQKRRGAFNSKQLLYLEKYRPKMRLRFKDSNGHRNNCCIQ
# [27] = biological target: LMPTP-B (Homo sapiens, UniProt P24666); assay: Phosphatase specificity profiling (PhosphataseProfiler); assay type: biochemical; details: 10 µM DiFMUP, commercial vendor, N=2, read-out: % Activity (Mean ± SD) LMPTP-B
# Chain of LMPTP-B (P24666 1-158 isoform P24666-2): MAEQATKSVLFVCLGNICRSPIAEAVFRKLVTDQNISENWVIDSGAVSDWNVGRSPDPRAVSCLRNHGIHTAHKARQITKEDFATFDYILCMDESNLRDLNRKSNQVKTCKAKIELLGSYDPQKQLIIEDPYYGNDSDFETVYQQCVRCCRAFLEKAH
# [28] = system: primary human lung microvascular endothelial cells (MVEC); assay: Endothelial barrier function (TEER, ECIS) after VEGF challenge; assay type: cell-based; details: 5 µM
# [29] = system: Rac1 activation in human MVEC; assay: Rac1 activation assay in MVEC after LPS; assay type: cell-based; details: 5 µM pretreatment 24 h, LPS 0.5 EU/mL 1 h
# [30] = biological target: T2, Lambda PP (Phage) (Escherichia phage lambda, UniProt P03772); assay: Phosphatase specificity profiling (PhosphataseProfiler); assay type: biochemical; details: 10 µM DiFMUP, commercial vendor, N=2, read-out: % Activity (Mean ± SD) Lambda PP (Phage)
# T2 construct: purchased Eurofins (Dundee, Scotland, UK), PhosphataseProfiler
# T2 sequence (P03772 whole entry): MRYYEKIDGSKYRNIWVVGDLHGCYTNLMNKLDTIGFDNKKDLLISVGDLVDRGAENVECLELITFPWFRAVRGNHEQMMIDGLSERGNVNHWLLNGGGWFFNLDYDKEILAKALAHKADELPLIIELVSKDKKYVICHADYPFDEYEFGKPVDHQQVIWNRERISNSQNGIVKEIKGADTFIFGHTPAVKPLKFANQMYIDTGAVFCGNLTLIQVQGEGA
# [31] = biological target: PTPN7 (HePTP) (Homo sapiens, UniProt P35236); assay: as above; assay type: biochemical; details: 10 µM DiFMUP, commercial vendor, N=2, read-out: % Activity (Mean ± SD) PTPN7 (HePTP)
# Chain of PTPN7 (HePTP) (P35236 whole entry): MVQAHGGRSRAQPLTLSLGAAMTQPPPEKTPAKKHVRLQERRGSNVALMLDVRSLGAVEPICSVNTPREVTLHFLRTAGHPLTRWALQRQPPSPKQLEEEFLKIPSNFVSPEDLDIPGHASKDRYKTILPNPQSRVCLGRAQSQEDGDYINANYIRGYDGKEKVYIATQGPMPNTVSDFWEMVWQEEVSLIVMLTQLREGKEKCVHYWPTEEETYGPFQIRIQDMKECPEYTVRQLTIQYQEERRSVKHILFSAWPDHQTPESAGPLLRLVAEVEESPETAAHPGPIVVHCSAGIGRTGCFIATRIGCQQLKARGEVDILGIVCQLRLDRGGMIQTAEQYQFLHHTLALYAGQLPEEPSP
# [32] = biological target: DUSP13 (TMDP) (Homo sapiens, UniProt Q9UII6); assay: as above; assay type: biochemical; details: 10 µM DiFMUP, commercial vendor, N=2, read-out: % Activity (Mean ± SD) DUSP13 (TMDP)
# Chain of DUSP13 (TMDP) (Q9UII6 whole entry): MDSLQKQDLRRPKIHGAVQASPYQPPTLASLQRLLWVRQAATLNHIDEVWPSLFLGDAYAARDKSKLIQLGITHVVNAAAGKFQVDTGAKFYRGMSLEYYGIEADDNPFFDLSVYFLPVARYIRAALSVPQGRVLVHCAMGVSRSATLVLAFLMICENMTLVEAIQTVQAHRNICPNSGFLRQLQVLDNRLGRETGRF
# [33] = biological target: T3, p38α (Homo sapiens, UniProt Q16539); assay: Kinase profiling (KinaseSeeker); assay type: biochemical; details: 1 µM screening concentration
# T3 construct: purchased Luceome Biotechnologies (Tucson, AZ), KinaseSeeker
# T3 sequence (Q16539 whole entry): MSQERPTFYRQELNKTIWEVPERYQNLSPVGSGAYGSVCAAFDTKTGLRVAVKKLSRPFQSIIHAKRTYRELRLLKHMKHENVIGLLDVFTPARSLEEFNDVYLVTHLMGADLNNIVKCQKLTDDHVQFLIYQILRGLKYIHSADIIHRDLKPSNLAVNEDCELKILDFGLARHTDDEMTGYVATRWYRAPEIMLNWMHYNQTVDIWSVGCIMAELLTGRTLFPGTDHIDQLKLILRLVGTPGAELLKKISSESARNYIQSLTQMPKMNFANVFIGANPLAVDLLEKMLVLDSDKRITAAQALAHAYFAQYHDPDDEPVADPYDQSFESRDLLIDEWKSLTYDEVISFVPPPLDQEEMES
# [34] = system: primary human lung microvascular endothelial cells (MVEC); assay: Endothelial barrier function (TEER, ECIS) after LPS challenge; assay type: cell-based
# [35] = biological target: PTPRB (PTPβ) (Homo sapiens, UniProt P23467); assay: Phosphatase specificity profiling (PhosphataseProfiler); assay type: biochemical; details: 10 µM DiFMUP, commercial vendor, N=2, read-out: % Activity (Mean ± SD) PTPRB (PTPβ)
# Chain of PTPRB (PTPβ) (P23467 23-1997): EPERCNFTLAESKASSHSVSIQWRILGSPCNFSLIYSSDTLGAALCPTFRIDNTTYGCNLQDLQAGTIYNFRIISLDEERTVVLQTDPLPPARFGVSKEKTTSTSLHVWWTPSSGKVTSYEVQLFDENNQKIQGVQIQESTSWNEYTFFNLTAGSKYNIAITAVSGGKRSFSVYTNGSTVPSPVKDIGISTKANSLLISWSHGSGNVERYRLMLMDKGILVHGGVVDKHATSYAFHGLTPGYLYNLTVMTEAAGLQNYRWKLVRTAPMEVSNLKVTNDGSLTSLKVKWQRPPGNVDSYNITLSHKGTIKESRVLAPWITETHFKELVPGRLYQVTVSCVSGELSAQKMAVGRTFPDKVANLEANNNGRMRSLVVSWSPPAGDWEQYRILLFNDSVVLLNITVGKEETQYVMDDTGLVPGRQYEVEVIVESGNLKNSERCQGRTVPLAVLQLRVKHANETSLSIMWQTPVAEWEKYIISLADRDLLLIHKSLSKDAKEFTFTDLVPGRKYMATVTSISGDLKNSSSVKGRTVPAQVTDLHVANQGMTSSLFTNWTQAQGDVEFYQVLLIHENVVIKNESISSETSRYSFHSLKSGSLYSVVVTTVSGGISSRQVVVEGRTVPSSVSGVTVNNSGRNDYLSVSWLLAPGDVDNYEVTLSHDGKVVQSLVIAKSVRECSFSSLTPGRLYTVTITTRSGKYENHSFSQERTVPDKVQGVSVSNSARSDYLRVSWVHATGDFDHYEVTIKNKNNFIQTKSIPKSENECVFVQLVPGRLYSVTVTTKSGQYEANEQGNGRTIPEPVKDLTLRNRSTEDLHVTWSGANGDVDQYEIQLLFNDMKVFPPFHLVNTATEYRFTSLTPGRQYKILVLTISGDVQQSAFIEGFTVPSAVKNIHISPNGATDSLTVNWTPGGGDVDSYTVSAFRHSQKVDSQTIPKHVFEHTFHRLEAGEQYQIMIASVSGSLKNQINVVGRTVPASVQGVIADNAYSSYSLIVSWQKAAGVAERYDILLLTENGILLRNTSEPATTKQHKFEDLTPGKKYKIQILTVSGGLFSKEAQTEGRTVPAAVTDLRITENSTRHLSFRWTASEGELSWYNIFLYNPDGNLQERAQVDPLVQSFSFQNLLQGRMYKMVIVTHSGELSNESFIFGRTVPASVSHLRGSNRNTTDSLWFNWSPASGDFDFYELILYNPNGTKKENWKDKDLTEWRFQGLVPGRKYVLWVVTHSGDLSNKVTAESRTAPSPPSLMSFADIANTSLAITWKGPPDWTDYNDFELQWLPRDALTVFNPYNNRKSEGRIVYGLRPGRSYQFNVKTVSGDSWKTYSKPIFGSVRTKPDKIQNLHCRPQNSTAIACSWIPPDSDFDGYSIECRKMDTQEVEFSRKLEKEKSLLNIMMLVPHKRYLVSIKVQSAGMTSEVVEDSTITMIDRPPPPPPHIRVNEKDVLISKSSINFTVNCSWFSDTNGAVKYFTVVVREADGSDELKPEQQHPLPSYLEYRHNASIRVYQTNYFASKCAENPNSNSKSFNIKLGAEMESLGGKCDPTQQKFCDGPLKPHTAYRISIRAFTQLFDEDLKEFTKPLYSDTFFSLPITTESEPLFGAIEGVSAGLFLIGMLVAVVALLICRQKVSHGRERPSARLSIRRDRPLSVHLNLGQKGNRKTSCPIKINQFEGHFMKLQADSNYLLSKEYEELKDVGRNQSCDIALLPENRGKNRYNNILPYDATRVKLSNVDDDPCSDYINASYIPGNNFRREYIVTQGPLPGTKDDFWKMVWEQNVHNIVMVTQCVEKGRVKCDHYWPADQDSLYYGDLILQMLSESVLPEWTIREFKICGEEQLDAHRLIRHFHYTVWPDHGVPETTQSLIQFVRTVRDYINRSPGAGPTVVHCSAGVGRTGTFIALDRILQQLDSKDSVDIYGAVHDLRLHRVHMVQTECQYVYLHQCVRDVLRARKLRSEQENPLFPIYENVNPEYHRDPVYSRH
# [36] = system: RhoA activation in human MVEC; assay: RhoA activation pull-down assay in MVEC after LPS; assay type: cell-based; details: 5 µM pretreatment 24 h, LPS 0.5 EU/mL 1 h
compound,measurement,setting,value
O=c1[nH]c(=O)c2cc(-c3ccccc3)sc2[nH]1 [JMS-038],IC50,[1],> 50 µM
same,IC50,[2],> 50 µM
same,IC50,[3],> 25 µM
same,IC50,[4],> 50 µM
same,IC50,[5],> 50 µM
same,IC50,[6],> 50 µM
same,IC50,[7],> 50 µM
same,IC50,[8],> 50 µM
same,IC50,[9],> 50 µM
same,IC50,[10],> 50 µM
same,IC50,[11],> 50 µM
same,IC50,[12],> 50 µM
same,IC50,[13],> 50 µM
same,IC50,[14],> 50 µM
same,IC50,[15],> 50 µM
same,IC50,[16],> 50 µM
same,IC50,[17],> 50 µM
same,IC50,[18],> 50 µM
same,IC50,[19],> 50 µM
same,IC50,[20],> 50 µM
same,IC50,[21],> 100 µM
same,migration of HeyA8 cells after wounding,[22],but not JMS-038 blocked the migration
same,∆Tm of PTP4A3 (destabilizing thermal shift),[23],no significant thermal shift; also recorded: no effect
same,IC50,"[24]; Homo sapiens, HEY A8, 48 h, Mean ± SD, N=3",> 50 µM
same,HeyA8 cell spheroid growth (images),[24]; images 48 h after plating and 24 h after compound addition,but not JMS-038 inhibited HeyA8 cell spheroid growth
same,effect on RhoA activation compared to DMSO vehicle control,[25],no significant effect
"Nc1c[nH]c(=O)c2cc(-c3ccccc3)sc12 [thienopyridone, reference compound]",IC50,[12],> 50 µM
same,IC50,[13],47 ± 4.9 µM
same,IC50,[14],15.5 ± 2.4 µM
same,IC50,[15],> 50 µM
same,IC50,[16],4.5 ± 0.6 µM
same,IC50,[17],13.1 ± 6 µM
same,IC50,[18],31.3 ± 8.5 µM
same,IC50,[19],28.8 ± 2.2 µM
N=C1C(=O)NC(=O)c2cc(-c3ccccc3)sc21 [JMS-053],activity at 1 µM,"[26]; 1 µM, in-house assay, N=2, read-out: % Activity (Mean ± SD) PTP4A1",1%
same,IC50,[26],0.05 ± 0.014 µM
same,activity at 1 µM,[27],99%
same,"TEER after VEGF, pretreatment",[28]; 2 h before VEGF 100 ng/mL then continuous exposure,normalized
same,"TEER after VEGF, post-treatment",[28]; 3 h after VEGF 100 ng/mL,normalized endothelial barrier function
same,LPS-mediated reduction in Rac1 activation,[29],blocked
same,activity at 1 µM,[30],72 ± 3%
same,activity at 1 µM,[31],97 ± 3%
same,activity at 1 µM,[32],95 ± 1%
same,inhibition of p38α,[33],~50%
same,"TEER after LPS, pretreatment","[34]; 5 µM, 24 h prior to LPS 0.5 EU/mL",prevented LPS-induced disruption of the endothelial barrier function
same,"TEER after LPS, post-treatment",[34]; treatment 3 h after LPS exposure,no observed mitigation
same,activity at 1 µM,[35],95 ± 5%
same,LPS-mediated RhoA activation,[36],blocked
